Reference: patent US10662445B2, “Process for the production of bio-butanol by fermentation of glycosidic waste matter” (priority 2018, dated 2020)
Blank lines part the entries; values can stand above or below the compound they belong to.

Columns and labels:
[1] = system: solventogenic Clostridia (ABE fermentation); conditions: cited from earlier work; for Inhibitory concentration: ABE fermentation
cellulase enzyme = conditions: cited from earlier work
[2] = Organic-solvent extraction of microbial inhibitors from an agro-waste hydrolysate mimic; type: physicochemical; conditions: for Inhibitor extraction, phase separation by centrifugal force / Inhibitor extraction, phase separation by separating funnel: solvent bis-(2-ethylhexyl) sebacate; for HMF remaining after extraction: standard 2.723 g/L; for Furfural remaining after extraction: standard 2.956 g/L; for TRS (total reducing sugar) after extraction: standard 52.00 g/L
Excerpt: Media composition was designed according to the inhibitory compound limit concentration reported in the literature for bio-butanol producing solventogenic Clostridia (Baral et al. Microbial inhibitors: formation and effects on acetone-butanol-ethanol fermentation of lignocellulosic biomass. Applied microbiology and biotechnology, Vol. 98(22), 2014: 9151-9172; Qureshi et al. Production of butanol (a biofuel) from agricultural residues: Part I—Use of barley straw hydrolysate. Biomass and bioenergy, Vol. 34(4), 2010: 559-565). Different volume ratio of the hydrolysate mimic and organic solvents, such as (5:1), (3:1), (2:1), (1:1) and (1:2) (vaqueous:vorganic) were tried in order to minimize extractant expenditure. Organic and aqueous phase mixing was carried out by a propeller impeller. Rotation rate (100, 200, 250, 300 and 400 rpm) and operation-time (15, 30, 45, 60 and 90 min) were tested at room temperature (25° C.). A comparative study between settling through separating funnel vs. centrifugal force assisted separation was also made to guarantee an optimal recovery of the broth phase.
A complex mixture of several reduced sugar compounds (e.g. as glucose, fructose, and xylose) and microbial inhibitors (furfural, HMF, acetic acid, levulinic acid, vanillin, vanillic acid, feluric acid and syringaldehyde) were produced during the pretreatment step (hydrolysis). In order to analyse these compounds, liquid samples were collected and analyzed using liquid chromatography-mass spectrometry (LC-MS) and liquid chromatography-tandem mass spectrometry (LC/MS-MS) equipped with a ZORBAX Carbohydrate column (5 μm, 150×4.6 mm ID column) (Agilent Technologies, USA) with D6 glucose as the internal standard and a Biobasic-18 column (5 μm, 250×4.6 mm ID) (Agilent Technologies, USA) with phenylethanol-D5 as the internal standard. […] Methanol water (8:2) and acetonitrile water (8.5:1.5) were used to dilute the sample before inhibitor and carbohydrate analysis. […]

[3] = system: Clostridium beijerinckii NRRL B-466 (CB); experiment: Bio-compatibility (solvent toxicity) batch ABE fermentation, CB
Method: (§1) Clostridium acetobutylicum NRRL B-582 (ATCC-824) (CA) and Clostridium beijerinckii NRRL B-466(CB) were considered for current investigation to produce bio-butanol from different brewery industry wastes. They were kindly provided by Agricultural Research Station, USDA (USA). The microorganisms were grown and maintained in peptone-yeast extract-glucose (PYG) media under anaerobic condition (vegetative growth) at 37±1° C. and 150 rpm for 24 h and 17 h, respectively, before being transferred into the fermentation medium. The medium (g L^−1) comprised: glucose (10); yeast extract (10); peptone (5); tryptone (5); cysteine-HCl (0.5); K2HPO4 (2.04); KH2PO4 (0.04); FeSO4*7H2O (1.1×10^−3); CaCl2 (8×10^−3); MgSO4*7H2O (0.0192); NaCl (0.08); and NaHCO3 (0.4). 125 mL serum bottles (working volume 50 mL) were used for both butanol production and inoculum development (Maiti et al., January 2016, Maiti et al., August 2015). Anaerobic conditions were maintained within the bottle by sparging N2 for 10 minutes and immediately sealed by an aluminum crimp seal containing silicone septum (Fisher scientific, Canada) by means of a hand operated crimper (E-Z Crimper™, VWR, Ontario, Canada). Prior to culture development, the medium was sterilized for 20 min at 121±1° C. About 10% (v/v) (dry cell weight […]) of microbial culture in its exponential phase of growth (OD600nm=1.3-1.5) was used as inoculum for all the experiments conducted in this investigation.
(§2) Set-1, set-4 and set-5 were included as control-1, control-2 and control-3 respectively. All the experiments were carried out in P2 nutrient media as described later in batch fermentation section.
(§3) Batch fermentation was performed in 125 mL serum vials (working volume of 50 mL) at pH 6.7±0.1. The P2 medium was sterilized at 121±1° C. for 20 min. Prior to fermentation, anaerobic conditions for each bottle were maintained by sparging the medium with N2 for 10 minutes and immediately closing with an aluminum crimp seal containing silicon septum (Fisher scientific, Canada) by means of a hand-operated crimper (E-Z Crimper™, VWR, Ontario, Canada). A modified P2 medium, with the following composition, was used for fermentation experiments: Buffer→KH2PO450 g/L, K2HPO450 g/L, ammonium acetate 220 g/L; Minerals→MgSO4*7H2O 20 g/L, MnSO4*H2O 1 g/L, FeSO4*7H2O 1 g/L, NaCl 1 g/L; Vitamins→thiamin 0.1 g/L, biotin 0.001 g/L). Since brewery industry wastes were already enriched with yeast protein, no additional yeast protein nor peptone were supplemented.
(§4) The fermentation was initiated by inoculating the P2 medium with the seed cultures at a ratio of 10% (v:v). […] Fermentation experiments were performed at 37±1° C. with shaking at 150 rpm for 72 h in duplicates. 1 mL of culture broth from each batch assay was used for metabolite analysis. Data described here present average values from duplicate runs for duplicate samples.
(§5) To determine the different metabolites produced during ABE fermentation (i.e. butanol, ethanol, acetone, butyric acid, and acetic acid) liquid samples from each fermentation broth were collected and analyzed using gas chromatography (GC) (GC7890B, Agilent Technologies, USA) equipped with a FID detector and a HP-INNOWax™ column (30 m, 0.25 mm ID, 0.25 μm df). Isobutanol was used as the internal standard. Before injecting the sample (1 mL) in the GC for products analysis, the sample was centrifuged for 5 minutes at 7650×g and the supernatant was filtered by 0.45 μm syringe filter. The GC conditions comprised: helium carrier gas at a flow rate of 1 mL/min with a temperature ramp from the initial temperature of 50° C. to 150° C.

[4] = system: Clostridium acetobutylicum NRRL B-582 (ATCC-824) (CA); experiment: Bio-compatibility (solvent toxicity) batch ABE fermentation, CA; conditions: CA
Method: as §1, §2, §3, §4, §5

[5] = homogenizer rotational speed 100 rpm
[6] = homogenizer rotational speed 200 rpm
[7] = homogenizer rotational speed 250 rpm
[8] = homogenizer rotational speed 300 rpm
[9] = homogenizer rotational speed 400 rpm
[10] = (5-15%) solvent supplemented to 52 g/L glucose
[11] = Control-1 (52 g/L glucose) + (5-15)% solvent, 72 h, P2 medium
[12] = Extraction 1, Vaqueous:Vorganic = 2:1, hydrolysate mimic
[13] = Extraction 1, Vaqueous:Vorganic = 2:1, hydrolysate mimic, standard 565.9 mg/L
[14] = Extraction 2, Vaqueous:Vorganic = 2:1, hydrolysate mimic
[15] = Extraction 3, Vaqueous:Vorganic = 2:1, hydrolysate mimic
[16] = Extraction 4, Vaqueous:Vorganic = 2:1, hydrolysate mimic
[17] = first stage, ratio 2:1, hydrolysate mimic

Compound: COc1cc(C=O)cc(OC)c1O [Syringaldehyde, syringaldehyde]
Inhibitory concentration [1]: >0.05 g/L
Concentration that stopped ABE production [1]: 2. (0.3-1.0 g/L) stopped ABE production
Concentration showing strong inhibition on cellulase enzyme activity (cellulase enzyme): 1. (0.05 g/L) showed strong inhibition
Inhibitor extraction, phase separation by centrifugal force [2, 5]: 100%
Inhibitor extraction, phase separation by separating funnel [2, 5]: 100%
Inhibitor extraction, phase separation by centrifugal force [2, 6]: 100%
Inhibitor extraction, phase separation by separating funnel [2, 6]: 100%
Inhibitor extraction, phase separation by centrifugal force [2, 7]: 100%
Inhibitor extraction, phase separation by separating funnel [2, 7]: 100%
Inhibitor extraction, phase separation by centrifugal force [2, 8]: 100%
Inhibitor extraction, phase separation by separating funnel [2, 8]: 100%
Inhibitor extraction, phase separation by centrifugal force [2, 9]: 100%
Inhibitor extraction, phase separation by separating funnel [2, 9]: 100%

Inhibitor extraction, phase separation by centrifugal force [2, 5]: 97%
Inhibitor extraction, phase separation by separating funnel [2, 5]: 94%
Inhibitor extraction, phase separation by centrifugal force [2, 6]: 96%
Inhibitor extraction, phase separation by separating funnel [2, 6]: 94%
Inhibitor extraction, phase separation by centrifugal force [2, 7]: 97%
Inhibitor extraction, phase separation by separating funnel [2, 7]: 93%
Inhibitor extraction, phase separation by centrifugal force [2, 8]: 95%
Inhibitor extraction, phase separation by separating funnel [2, 8]: 94%
Inhibitor extraction, phase separation by centrifugal force [2, 9]: 97%
Inhibitor extraction, phase separation by separating funnel [2, 9]: 96%
Compound: COc1cc(/C=C/C(=O)O)ccc1O [Ferulic acid, ferulic acid]
Inhibitory concentration [1]: > 0.3 g/L
Concentration that inhibited butanol production [1]: 1. (>0.3 g/L) inhibited butanol production

Compound: CCCCCCCCCC(C)=O [2-undecanone]
Reduction of bio-butanol generation in comparison with set-1 [3, 10]: 67%
ABE [3, 11]: 4.28 ± 0.4 g/L
Butanol [3, 11]: 3.11 ± 0.3 g/L
Reduction of bio-butanol generation in comparison with set-1 [4, 10]: 70%
ABE [4, 11]: 3.82 ± 0.2 g/L
Butanol [4, 11]: 2.77 ± 0.12 g/L
Ferulic acid removal [2, 12]: 99%
Furfural removal [2, 12]: 87%
HMF removal [2, 12]: 90%
Syringaldehyde removal [2, 12]: 97%
TRS removal [2, 12]: 0%
Vanillic acid removal [2, 12]: 95%
Vanillin removal [2, 12]: 98%
Syringaldehyde remaining after extraction ([2]; Extraction 1, Vaqueous:Vorganic = 2:1, hydrolysate mimic, standard 300.2 mg/L): 7.6 mg/L
Ferulic acid remaining after extraction ([2]; Extraction 1, Vaqueous:Vorganic = 2:1, hydrolysate mimic, standard 485.6 mg/L): 0.7 mg/L
Vanillic acid remaining after extraction [2, 13]: 9.8 mg/L
Vanillin remaining after extraction [2, 13]: 10.3 mg/L
HMF remaining after extraction [2, 12]: 0.267 g/L
Furfural remaining after extraction [2, 12]: 0.392 g/L
TRS (total reducing sugar) after extraction [2, 12]: 52.00 g/L
Ferulic acid removal [2, 14]: 100%
Furfural removal [2, 14]: 97%
HMF removal [2, 14]: 97%
Syringaldehyde removal [2, 14]: 100%
TRS removal [2, 14]: 0%
Vanillic acid removal [2, 14]: 100%
Vanillin removal [2, 14]: 100%
HMF remaining after extraction [2, 14]: 0.077 g/L
Furfural remaining after extraction [2, 14]: 0.082 g/L
TRS (total reducing sugar) after extraction [2, 14]: 52.00 g/L
Ferulic acid removal [2, 15]: 100%
Furfural removal [2, 15]: 100%
HMF removal [2, 15]: 100%
Syringaldehyde removal [2, 15]: 100%
TRS removal [2, 15]: 0%
Vanillic acid removal [2, 15]: 100%
Vanillin removal [2, 15]: 100%
TRS (total reducing sugar) after extraction [2, 15]: 52.00 g/L
Ferulic acid removal [2, 16]: 100%
Furfural removal [2, 16]: 100%
HMF removal [2, 16]: 100%
Syringaldehyde removal [2, 16]: 100%
TRS removal [2, 16]: 0%
Vanillic acid removal [2, 16]: 100%
Vanillin removal [2, 16]: 100%
TRS (total reducing sugar) after extraction [2, 16]: 52.00 g/L
Extraction efficiency for phenolic compounds [2, 17]: higher than 95%
Extraction efficiency towards furan derivatives [2, 17]: 87-90%

Inhibitor extraction, phase separation by centrifugal force [2, 5]: 92%
Inhibitor extraction, phase separation by separating funnel [2, 5]: 90%
Inhibitor extraction, phase separation by centrifugal force [2, 6]: 93%
Inhibitor extraction, phase separation by separating funnel [2, 6]: 91%
Inhibitor extraction, phase separation by centrifugal force [2, 7]: 94%
Inhibitor extraction, phase separation by separating funnel [2, 7]: 93%
Inhibitor extraction, phase separation by centrifugal force [2, 8]: 94%
Inhibitor extraction, phase separation by separating funnel [2, 8]: 93%
Inhibitor extraction, phase separation by centrifugal force [2, 9]: 96%
Inhibitor extraction, phase separation by separating funnel [2, 9]: 93%
Compound: COc1cc(C(=O)O)ccc1O [Vanillic acid, vanillic acid]
Inhibitory concentration [1]: >1 g/L
Concentration that stopped bio-butanol production [1]: 1. (>1 g/L) stopped bio-butanol
